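Values below derive from 48-hour exposures of cells grown in 96-well plates, with endpoints linearly interpolated between the two concentrations bracketing the appropriate inhibition level. GI50: concentration for 50% inhibition of growth.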 Activity calls are given as the source filed them. Cut-off read from the data, not from the text of the source: active = GI50 up to about 1.1 µM and inactive = higher.
Columns and labels:
Assay in all cases: NCI-60 cell line screen, 48 h
[1] = test system: SF-295
[2] = test system: SN12C
[3] = test system: OVCAR-4
[4] = test system: SNB-75
[5] = test system: SW-620
[6] = test system: Malme-3M
[7] = test system: LOX IMVI
[8] = test system: K562
[9] = test system: 786-0
[10] = test system: RPMI-8226
[11] = test system: KM-20L2
[12] = test system: MOLT-4
[13] = test system: ACHN
[14] = test system: CAKI-1
[15] = test system: SF-268
[16] = test system: COLO 205
[17] = test system: SF-539
[18] = test system: A549
[19] = test system: MDA-N
[20] = test system: T47D

Measured: GI50

NC(=S)N/N=C1/C(=O)N(c2ccc(Cl)cc2Cl)C(=O)C(=O)C1c1nc2ccccc2s1 (stereo unspecified)
inactive: [1] > 100 µM | [2] > 100 µM | [3] > 100 µM | [4] > 100 µM | [5] > 100 µM | [6] > 100 µM | [7] > 100 µM | [8] > 100 µM | [9] > 100 µM | [10] > 100 µM | [11] > 100 µM | [12] 52.1 µM | [13] > 100 µM | [14] > 100 µM | [15] > 100 µM | [16] > 100 µM | [17] > 100 µM

COc1cc(Cl)cc(N(O)C(C)=O)c1OCc1ccccc1
inactive: [1] 66.2 µM | [2] > 100 µM | [3] > 100 µM | [18] 68.5 µM | [4] 24.8 µM | [5] > 100 µM | [6] > 100 µM | [7] 77.6 µM | [8] 75.9 µM | [9] 61.8 µM | [10] 96.6 µM | [11] 83.2 µM | [12] 50.4 µM | [13] 63.4 µM | [14] > 100 µM | [15] 44.8 µM | [16] > 100 µM | [17] 83.4 µM

Cc1ccc(NC(=O)C(=O)C2C(=O)NC(=O)NC2=O)c(C)c1
inactive: [1] > 100 µM | [2] 14.9 µM | [3] > 100 µM | [18] > 100 µM | [4] > 100 µM | [5] > 100 µM | [6] > 100 µM | [7] > 100 µM | [8] > 100 µM | [9] > 100 µM | [10] > 100 µM | [11] > 100 µM | [12] > 100 µM | [13] > 100 µM | [14] > 100 µM | [15] > 100 µM | [16] 13.8 µM | [17] > 100 µM

Nc1ccc2ncc(NCc3ccc(F)cc3)nc2c1
inactive: [1] 56.2 µM | [2] 87.5 µM | [3] 92.3 µM | [18] > 100 µM | [4] 25.4 µM | [5] > 100 µM | [6] > 100 µM | [7] 75 µM | [8] 87.9 µM | [9] > 100 µM | [10] 62.2 µM | [11] > 100 µM | [12] 41.9 µM | [13] 64.9 µM | [14] 71.9 µM | [15] 48.2 µM | [16] > 100 µM | [17] 39.6 µM

CN(C)CC1CCC(CN(C)C)C1=NO (stereo unspecified)
inactive: [1] > 10 µM | [2] > 100 µM | [3] > 100 µM | [18] > 100 µM | [4] > 10 µM | [5] > 100 µM | [6] > 100 µM | [7] > 100 µM | [8] > 100 µM | [9] > 100 µM | [10] > 100 µM | [11] > 100 µM | [12] > 100 µM | [13] > 100 µM | [14] > 100 µM | [15] > 100 µM | [16] > 100 µM | [17] > 100 µM

CSC(=Nc1nnc(-c2ccc([N+](=O)[O-])cc2)s1)SC
inactive: [1] 18.5 µM | [2] 52.2 µM | [3] 45.8 µM | [18] 46.8 µM | [4] 11.9 µM | [5] > 100 µM | [6] > 74.1 µM | [7] 31.9 µM | [8] > 100 µM | [9] 20.7 µM | [10] > 100 µM | [11] > 100 µM | [12] > 100 µM | [19] > 72.9 µM | [13] 42.9 µM | [14] 16.7 µM | [15] 16.7 µM | [16] > 100 µM | [17] 18.1 µM | [20] 17.8 µM

O=C1C[C@H]2CCCN2[C@@H](c2ccccc2)C1
inactive: [1] > 100 µM | [2] > 100 µM | [3] > 100 µM | [18] > 100 µM | [4] > 100 µM | [5] > 100 µM | [6] > 100 µM | [7] > 100 µM | [8] > 100 µM | [9] > 100 µM | [10] > 100 µM | [11] > 100 µM | [12] > 100 µM | [13] > 100 µM | [14] > 100 µM | [15] > 100 µM | [16] > 100 µM | [17] > 100 µM

O=C(/C=C/c1ccc(Cl)cc1)c1ccc(Cl)c(Cl)c1
inactive: [1] 35.2 µM | [2] 9.1 µM | [3] 26.4 µM | [18] 23.7 µM | [4] 19.6 µM | [5] 5.41 µM | [6] 25.1 µM | [7] 15.2 µM | [8] 21.7 µM | [9] 25.5 µM | [10] 2.95 µM | [11] 41.2 µM | [12] 20.5 µM | [13] 29 µM | [14] 18.1 µM | [15] 20.7 µM | [16] > 10 µM | [17] 20 µM

CCCCCCCC(=O)OCC1OC(n2cc(F)c(=O)[nH]c2=O)C(NC(=O)OCc2ccccc2)C(O)C1O (stereo unspecified)
inactive: [1] > 100 µM | [2] 32.9 µM | [3] > 100 µM | [18] > 100 µM | [4] 29.3 µM | [5] > 100 µM | [6] > 100 µM | [7] 37.1 µM | [8] 28.2 µM | [9] > 100 µM | [10] 26.4 µM | [11] 47.1 µM | [12] 27.9 µM | [13] > 100 µM | [14] > 100 µM | [15] 46.9 µM | [16] 37.8 µM | [17] 83.4 µM

COC1(C)Cc2c(c(C)c(O)c3c2C(=O)C=C(Cl)C3=O)O1 (stereo unspecified)
inactive: [1] > 100 µM | [2] > 65.6 µM | [3] 41.3 µM | [18] > 100 µM | [4] > 100 µM | [5] 19.8 µM | [6] 13.5 µM | [7] 44.8 µM | [8] 8.75 µM | [9] > 100 µM | [10] 14.7 µM | [11] > 100 µM | [12] 7.5 µM | [19] 34.9 µM | [13] 25.4 µM | [14] 20.4 µM | [15] > 88.1 µM | [16] 18.2 µM | [17] > 100 µM | [20] 13.4 µM

COc1cc2c(cn1)[nH]c1ccccc12
inactive: [1] > 100 µM | [2] > 100 µM | [3] > 100 µM | [18] > 100 µM | [4] 55.8 µM | [5] 46.3 µM | [6] > 100 µM | [7] > 100 µM | [8] > 100 µM | [9] > 100 µM | [10] > 100 µM | [11] > 100 µM | [12] > 100 µM | [13] > 100 µM | [14] 94.2 µM | [15] 88.1 µM | [16] > 100 µM | [17] > 100 µM

Source: ChEMBL document CHEMBL1201862, “PubChem BioAssay data set” (2004)
